Calls of active or inactive are those of the source.
Assays:
[1] = molecular target: T1, Heat shock factor protein 1 (Mus musculus, UniProt P38532); assay: enhancement of HSF1-driven luciferase signal – cell-based, NIH3T3, luminescence, dose retest, confirmation (AID 435004); type: functional;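 note: stress induced by proteasome inhibitor MG132 added 30 min after compound; luciferase reporter driven by HSF1 response element in NIH3T3 cells; actives raise luminescence as potentiators of the MG132 stress response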
T1 sequence (P38532 whole entry): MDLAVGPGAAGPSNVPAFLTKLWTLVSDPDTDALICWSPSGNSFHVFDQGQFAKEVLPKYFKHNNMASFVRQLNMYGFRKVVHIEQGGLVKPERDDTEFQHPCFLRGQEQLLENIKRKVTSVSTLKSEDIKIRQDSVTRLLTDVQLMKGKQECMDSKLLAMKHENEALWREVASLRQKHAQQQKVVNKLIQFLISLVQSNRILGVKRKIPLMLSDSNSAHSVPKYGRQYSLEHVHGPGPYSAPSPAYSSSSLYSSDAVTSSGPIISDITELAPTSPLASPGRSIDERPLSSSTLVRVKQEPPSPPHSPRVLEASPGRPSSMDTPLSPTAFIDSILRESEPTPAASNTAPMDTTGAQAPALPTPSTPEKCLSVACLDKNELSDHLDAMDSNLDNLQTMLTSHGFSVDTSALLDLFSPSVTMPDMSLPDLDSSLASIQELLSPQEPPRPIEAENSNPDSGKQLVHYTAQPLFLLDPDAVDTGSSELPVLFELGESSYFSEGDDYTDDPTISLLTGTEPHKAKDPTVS

[2] = viability of uninfected HEp-2 cells – cell-based, HTS, cytotoxicity control for RSV inhibitor project, dose response (AID 2410); type: functional; settings: human respiratory syncytial virus
Cytochrome P450 3A4 = Cytochrome P450 3A4 (Homo sapiens, UniProt P08684);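 note: CYP3A4 tested as one member of a cytochrome P450 panel screen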
Chain of Cytochrome P450 3A4 (P08684 whole entry): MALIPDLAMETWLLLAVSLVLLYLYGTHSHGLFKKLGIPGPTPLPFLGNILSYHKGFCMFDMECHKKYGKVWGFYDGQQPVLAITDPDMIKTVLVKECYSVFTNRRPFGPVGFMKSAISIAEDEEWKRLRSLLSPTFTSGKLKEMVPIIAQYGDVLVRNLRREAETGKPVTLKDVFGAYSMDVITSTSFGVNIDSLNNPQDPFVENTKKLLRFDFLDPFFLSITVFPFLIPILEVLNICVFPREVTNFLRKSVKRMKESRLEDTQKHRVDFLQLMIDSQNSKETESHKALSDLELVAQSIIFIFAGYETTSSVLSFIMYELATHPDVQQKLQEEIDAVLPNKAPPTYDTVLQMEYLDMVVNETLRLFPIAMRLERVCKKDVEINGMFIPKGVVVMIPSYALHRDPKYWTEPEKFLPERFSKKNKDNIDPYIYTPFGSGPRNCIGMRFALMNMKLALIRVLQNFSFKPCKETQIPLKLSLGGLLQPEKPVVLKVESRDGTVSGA

Cytochrome P450 2D6 = Cytochrome P450 2D6 (Homo sapiens, UniProt P10635);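 note: CYP2D6 member of a cytochrome P450 panel assay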
Chain of Cytochrome P450 2D6 (P10635 whole entry): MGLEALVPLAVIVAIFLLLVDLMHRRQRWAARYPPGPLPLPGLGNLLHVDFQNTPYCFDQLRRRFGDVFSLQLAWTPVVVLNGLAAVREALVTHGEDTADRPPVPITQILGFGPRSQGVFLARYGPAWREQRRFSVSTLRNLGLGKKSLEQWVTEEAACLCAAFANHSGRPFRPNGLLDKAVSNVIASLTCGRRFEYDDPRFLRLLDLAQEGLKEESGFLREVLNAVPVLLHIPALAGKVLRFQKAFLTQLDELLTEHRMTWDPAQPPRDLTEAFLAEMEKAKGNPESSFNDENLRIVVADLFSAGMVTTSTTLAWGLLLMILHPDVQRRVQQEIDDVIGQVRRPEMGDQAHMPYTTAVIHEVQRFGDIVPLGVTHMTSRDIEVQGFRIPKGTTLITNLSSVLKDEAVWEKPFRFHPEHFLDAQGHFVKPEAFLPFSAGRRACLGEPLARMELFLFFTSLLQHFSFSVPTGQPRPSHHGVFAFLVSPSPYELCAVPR

[3] = molecular target: Luciferin 4-monooxygenase (Photinus pyralis, UniProt P08659); assay: inhibition of purified Photinus pyralis luciferase – biochemical, luminescence, dose response (AID 1891)
Chain of Luciferin 4-monooxygenase (P08659 whole entry): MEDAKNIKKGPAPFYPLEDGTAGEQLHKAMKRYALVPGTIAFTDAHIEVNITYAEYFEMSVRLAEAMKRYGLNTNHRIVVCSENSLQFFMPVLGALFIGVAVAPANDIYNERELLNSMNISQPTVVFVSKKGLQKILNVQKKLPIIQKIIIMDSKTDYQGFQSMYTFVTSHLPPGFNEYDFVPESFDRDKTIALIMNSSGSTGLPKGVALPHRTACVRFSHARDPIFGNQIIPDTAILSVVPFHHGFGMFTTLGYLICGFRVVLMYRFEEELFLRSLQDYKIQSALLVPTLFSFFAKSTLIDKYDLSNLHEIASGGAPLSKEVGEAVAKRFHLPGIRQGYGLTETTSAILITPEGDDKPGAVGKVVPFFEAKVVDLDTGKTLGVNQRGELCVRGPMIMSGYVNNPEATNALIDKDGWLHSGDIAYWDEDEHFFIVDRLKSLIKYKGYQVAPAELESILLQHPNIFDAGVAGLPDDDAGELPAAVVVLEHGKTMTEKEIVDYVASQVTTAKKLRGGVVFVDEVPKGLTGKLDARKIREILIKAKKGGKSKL

[4] = Luminescence Cell-Based Dose Confirmation HTS to Identify Inhibitors of Platelet Dense Granule Release. [Related pubchem assays: 1663 (Primary HTS), 1678 (Summary of Project)]; type: functional
Cytochrome P450 2C19 = Cytochrome P450 2C19 (Homo sapiens, UniProt P33261); assay: Cytochrome panel assay with activity outcomes. Panel member name: p450-cyp2c19 Compounds with AC50 equal or less than 10 uM are considered active; type: functional; settings: read-out: AC50
Chain of Cytochrome P450 2C19 (P33261 whole entry): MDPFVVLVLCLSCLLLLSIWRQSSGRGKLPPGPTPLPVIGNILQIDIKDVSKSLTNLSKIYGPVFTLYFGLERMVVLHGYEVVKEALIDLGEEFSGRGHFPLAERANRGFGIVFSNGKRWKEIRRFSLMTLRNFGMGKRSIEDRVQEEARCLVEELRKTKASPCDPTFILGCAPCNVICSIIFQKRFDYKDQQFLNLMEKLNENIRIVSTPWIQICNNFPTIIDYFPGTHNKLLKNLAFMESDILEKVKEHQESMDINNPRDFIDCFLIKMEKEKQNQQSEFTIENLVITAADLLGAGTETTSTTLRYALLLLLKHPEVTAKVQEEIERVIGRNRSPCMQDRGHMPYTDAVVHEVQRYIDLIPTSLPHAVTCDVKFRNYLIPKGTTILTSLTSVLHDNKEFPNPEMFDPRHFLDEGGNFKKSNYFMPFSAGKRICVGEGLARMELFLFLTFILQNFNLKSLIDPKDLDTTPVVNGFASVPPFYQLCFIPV

Cytochrome P450 1A2 = molecular target: T2, Cytochrome P450 1A2 (Homo sapiens, UniProt P05177);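 note: PubChem cytochrome P450 panel assay, CYP1A2 panel member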
T2 sequence (P05177 whole entry): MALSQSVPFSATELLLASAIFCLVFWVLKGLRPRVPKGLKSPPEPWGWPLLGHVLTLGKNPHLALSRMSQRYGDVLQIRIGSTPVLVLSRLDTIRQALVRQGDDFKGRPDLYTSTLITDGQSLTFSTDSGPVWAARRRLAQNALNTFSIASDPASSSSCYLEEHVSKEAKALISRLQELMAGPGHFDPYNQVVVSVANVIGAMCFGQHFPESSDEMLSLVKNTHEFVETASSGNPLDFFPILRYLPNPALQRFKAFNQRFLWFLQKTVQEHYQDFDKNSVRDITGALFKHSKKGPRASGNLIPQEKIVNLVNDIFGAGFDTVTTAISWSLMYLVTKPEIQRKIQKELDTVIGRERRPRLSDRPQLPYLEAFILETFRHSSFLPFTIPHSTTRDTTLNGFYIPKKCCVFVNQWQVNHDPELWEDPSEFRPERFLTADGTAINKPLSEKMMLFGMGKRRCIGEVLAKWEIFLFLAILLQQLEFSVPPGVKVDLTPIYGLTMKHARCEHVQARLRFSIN

Cytochrome P450 2C9 = Cytochrome P450 2C9 (Homo sapiens, UniProt P11712)
Chain of Cytochrome P450 2C9 (P11712 whole entry): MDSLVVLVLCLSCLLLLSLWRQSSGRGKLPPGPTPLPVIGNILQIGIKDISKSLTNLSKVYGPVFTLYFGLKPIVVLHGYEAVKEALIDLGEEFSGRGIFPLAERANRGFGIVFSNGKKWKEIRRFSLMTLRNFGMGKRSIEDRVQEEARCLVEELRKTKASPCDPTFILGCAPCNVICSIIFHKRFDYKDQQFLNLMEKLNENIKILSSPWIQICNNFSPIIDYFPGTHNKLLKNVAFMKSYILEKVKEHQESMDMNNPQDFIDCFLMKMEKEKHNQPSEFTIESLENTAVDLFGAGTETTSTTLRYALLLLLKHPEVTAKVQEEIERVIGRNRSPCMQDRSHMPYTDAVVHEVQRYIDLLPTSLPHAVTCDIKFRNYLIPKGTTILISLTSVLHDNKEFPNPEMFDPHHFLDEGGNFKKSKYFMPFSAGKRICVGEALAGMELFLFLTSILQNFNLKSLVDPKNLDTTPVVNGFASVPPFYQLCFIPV

[5] = fluconazole-exposed Candida albicans growth modulators – fluorescence, retest, confirmation (AID 2467); type: functional, cell-based
[6] = NIH-3T3 fibroblast cytotoxicity, dose response, cytotoxicity control, cell-based, fluorescence, Alamar Blue, secondary assay (AID 2327); type: functional;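 note: NIH-3T3 mouse fibroblasts cultured with fluconazole at 8 µg/mL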
[7] = Trypanosoma cruzi growth suppression in host cells – NIH3T3 host cells, beta-gal luminescence, confirmation (AID 2044); type: functional, cell-based;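 note: intracellular parasites grown in NIH/3T3 mouse fibroblasts as host cells; luminescent beta-galactosidase reporter signal from transgenic T. cruzi replicating inside host cells; inhibitors lower the luminescence signal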
[8] = NIH3T3 cell viability loss – ATP luminescence, mouse fibroblasts, counter-screen, dose response (AID 2010); type: functional, cell-based;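 note: cells exposed to compound for about 90 hours before reading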
[9] = molecular target: FAD-linked sulfhydryl oxidase ALR (Homo sapiens, UniProt P55789); assay: ALR-catalysed DTT oxidation blockers – biochemical, H2O2 detection, luminescence, cherry-pick, dose response (AID 493248)
Chain of FAD-linked sulfhydryl oxidase ALR (P55789 whole entry): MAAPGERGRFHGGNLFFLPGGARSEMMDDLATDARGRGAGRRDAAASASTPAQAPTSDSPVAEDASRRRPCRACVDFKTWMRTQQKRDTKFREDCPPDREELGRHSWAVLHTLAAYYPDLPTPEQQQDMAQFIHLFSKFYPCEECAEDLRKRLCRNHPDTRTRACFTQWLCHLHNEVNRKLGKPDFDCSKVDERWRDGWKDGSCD

[10] = tested on: Streptococcus sp. 'group A'; assay: Streptococcus pyogenes SK(-)GAS viability under kanamycin – luminescence, BacTiterGlo, confirmation, counter-screen for streptokinase expression inhibitor project, dose response (AID 1900); type: functional, organism-based
Streptococcus = assay: GAS UMAA2166 growth inhibition – luminescence, BacTiterGlo, counter-screen for streptokinase expression inhibitor project, dose response (AID 1915); type: functional, organism-based;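 note: potency for reduction of bacterial viability or growth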
Streptokinase A = molecular target: T3, Streptokinase A (Streptococcus pyogenes serotype M1, UniProt P10520); assay: viability-normalized secreted streptokinase activity reduction – plasminogen activation absorbance, OD405, dose response (AID 1914); type: functional, Streptococcus pyogenes M1 GAS;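 note: secreted streptokinase activity via plasminogen activation per viability signal from cell pellet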
T3 sequence (P10520 whole entry): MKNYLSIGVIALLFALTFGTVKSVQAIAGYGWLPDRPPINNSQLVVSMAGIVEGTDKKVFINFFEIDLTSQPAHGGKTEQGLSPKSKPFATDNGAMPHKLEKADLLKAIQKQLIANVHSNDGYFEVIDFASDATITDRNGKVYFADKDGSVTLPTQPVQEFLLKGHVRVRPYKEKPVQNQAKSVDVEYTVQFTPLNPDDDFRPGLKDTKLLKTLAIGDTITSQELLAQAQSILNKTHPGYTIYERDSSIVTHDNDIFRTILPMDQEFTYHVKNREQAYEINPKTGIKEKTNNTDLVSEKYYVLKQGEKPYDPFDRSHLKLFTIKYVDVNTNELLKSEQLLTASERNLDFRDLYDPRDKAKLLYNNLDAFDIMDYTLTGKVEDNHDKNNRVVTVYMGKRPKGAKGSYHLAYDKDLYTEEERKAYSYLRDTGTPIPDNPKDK

INS1 = assay: INS-1E survival protection against cytokine death – cell-based, luminescence, retest, dose response (AID 449756); type: functional; settings: Rattus norvegicus;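 note: cell death triggered by IL-1 beta plus TNF-alpha plus IFN-gamma mixture; protective hits raise ATP signal compared with cytokine alone wells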

Cc1ccc(S(=O)(=O)N2CCN(C(=O)CSc3ccc(Cl)cc3)CC2)cc1
EC50 [1]: > 260 µM (inactive)

CC1(c2ccccc2)CC(C)(C)N(C(=O)CSc2nnc(N)s2)c2ccccc21 (stereo not given)
CC50 [2]: 22.9 µM (active)

CCOc1ccc2nc(O)c(O)nc2c1
CC50 [2]: 45.8 µM (active)

CCc1cc2c(nc1CC)CCN(CC/C(C)=N/OC)C2
AC50 (Cytochrome P450 3A4): 3.16 µM (inconclusive) | AC50 (Cytochrome P450 2D6): 3.16 µM (inconclusive)

c1ccc2c(C3=NN=C(NC4CC4)SC3)c[nH]c2c1
EC50 [3]: > 112 µM (not active) | EC50 [1]: > 260 µM (inactive) | EC50 [4]: 20.2 µM (active)

COc1ccccc1-c1ccc2ncnc(NCc3cnc(C)cn3)c2c1
AC50 (Cytochrome P450 3A4): 10 µM (inconclusive) | AC50 (Cytochrome P450 2D6): 39.8 µM (inconclusive) | AC50 (Cytochrome P450 2C19): 39.8 µM (inconclusive)

COc1ccc(CN(C(=O)CSc2nnc(-c3ccccc3F)o2)c2ccc(F)cc2)cc1
CC50 [2]: 23.1 µM (active)

COc1ccc(-c2cc(CCCC(=O)NCCc3ccc(OC)cc3OC)no2)cc1
AC50 (Cytochrome P450 1A2): 0.562 µM (active) | AC50 (Cytochrome P450 2D6): 1.12 µM (active) | AC50 (Cytochrome P450 2C9): 0.562 µM (active) | EC50 [1]: > 260 µM (inactive) | AC50 (Cytochrome P450 2C19): 1.41 µM (active)

CCN(CC)c1cccc(OC2=NS(=O)(=O)c3ccccc32)c1
EC50 [5]: 5.06 µM (active) | EC50 [6]: > 150 µM (inactive)

CCCn1c(=N)n(CC(=O)c2ccco2)c2ccccc21
AC50 (Cytochrome P450 1A2): 10 µM (inconclusive) | AC50 (Cytochrome P450 3A4): 35.5 µM (inconclusive)

CCc1cc(C(=O)c2ccc(OC)cc2)c(N)s1
EC50 [1]: > 260 µM (inactive)

CS(=O)(=O)N(CC(=O)Nc1c(F)cccc1F)c1ccc(C23CC4CC(CC(C4)C2)C3)cc1
AC50 (Cytochrome P450 3A4): 15.8 µM (inconclusive) | EC50 [7]: 2.25 µM (active) | AC50 (Cytochrome P450 2D6): 4.47 µM (inconclusive) | EC50 [8]: 10.6 µM (active)

Cc1cc(O)nc2c(C)cc(S(=O)(=O)Nc3ccc(O)cc3)cc12
AC50 [9]: 1.3 µM (active)

CC(C)[C@H](NC(=O)OC(C)(C)C)c1nnc(SCC(=O)Nc2ccc(Br)cc2)o1
EC50 [1]: 98.6 µM (active)

COc1ccccc1N1CCN(Cc2nc(N)nc(Nc3ccc(C)c(Cl)c3)n2)CC1
EC50 [10]: 10.7 µM (active) | EC50 (Streptococcus): 20.4 µM (active) | CC50 [2]: 19.6 µM (active) | EC50 (Streptokinase A): > 150 µM (inconclusive)

CCCCC(=O)OCc1cn(-c2ccc(Cl)cc2)nn1
AC50 (Cytochrome P450 3A4): 39.8 µM (inconclusive) | AC50 (Cytochrome P450 2D6): 25.1 µM (inconclusive) | AC50 (Cytochrome P450 2C19): 2.24 µM (inconclusive)

Cc1cc(Cl)ccc1NNC(=O)c1snnc1C
EC50 [5]: 1.59 µM (active) | EC50 [6]: 16.8 µM (inconclusive)

N=c1ccn(Cc2ccc(Cl)cc2Cl)cc1
AC50 (INS1): 7.25 µM (active)

Cc1ccc(S(=O)(=O)NNC(=O)c2ccc(NC(=O)C3CC3)cc2)cc1
EC50 [5]: 12.7 µM (active) | EC50 [6]: > 150 µM (inactive)

CCc1ccc(NC(=O)CN2C(=O)CSC2=O)cc1
AC50 [9]: 1.2 µM (active)

NC(=NO)c1cn(Cc2ccccc2Cl)c2ccccc12
AC50 [9]: 0.488 µM (active)

N#Cc1cccc(NC(=O)N2CC[C@@]3(CCCN(C(=O)c4ccco4)C3)C2)c1
AC50 (Cytochrome P450 3A4): 20 µM (inconclusive)

CCOc1cc(C(=S)N2CCOCC2)ccc1OS(=O)(=O)c1ccc(C)cc1
EC50 [1]: > 260 µM (inactive)

Cc1cccc(NC(=O)CC(C)S(=O)(=O)c2ccc3c(c2)NC(=O)CO3)c1C (stereo not given)
EC50 [1]: > 260 µM (inactive)

COc1ccc(OC)c(C(c2nnnn2C2CCCC2)N2CCc3ccccc3C2)c1 (stereo not given)
CC50 [2]: 24 µM (active)

COc1ccc(Br)cc1C(=O)Nc1ccc(O)cc1
AC50 [9]: 2.75 µM (active)

CCN1CCCC1CNC(=O)C1c2cc(OC)c(OC)cc2C(=O)N(C)C1c1cccnc1 (stereo not given)
AC50 (Cytochrome P450 3A4): 5.62 µM (inconclusive) | AC50 (Cytochrome P450 2C9): 1.78 µM (inconclusive) | AC50 (Cytochrome P450 2C19): 1.12 µM (inconclusive)

CNC(=O)[C@H]1O[C@H](n2cnc3c(NCc4cccc(I)c4)ncnc32)[C@@H](O)[C@@H]1O
AC50 (Cytochrome P450 3A4): 31.6 µM (inconclusive)

COc1ccc(N2CCN(C(CNC(C)=O)c3ccc4c(c3)OCO4)CC2)cc1 (stereo not given)
AC50 [9]: 4.58 µM (active)

Cc1ccc(O)c(NC(=O)C2CCCN2C(=O)OCc2ccccc2)c1 (stereo not given)
AC50 [9]: 8.89 µM (active)

NC(=O)C1=C[C@@H](c2csc3ccccc23)C[C@@H](OCc2ccc(CO)cc2)O1
CC50 [2]: 15.5 µM (active)

Cc1ccc(/C=C/c2onc(C)c2S(=O)(=O)N2CCC(C(=O)N3CCCCC3)CC2)cc1
CC50 [2]: > 50 µM (active)

O=C(CN1CCN(S(=O)(=O)c2ccccc2)CC1)Nc1ccc2c(c1)CCC2
EC50 [5]: > 38 µM (not active) | EC50 [6]: > 150 µM (inactive)

CCOc1cc(S(=O)(=O)NCc2ccccc2)c(OCC)cc1-n1cnnn1
EC50 [5]: 3.34 µM (active) | EC50 [6]: > 150 µM (inconclusive)

Cc1oncc1-c1csc(-c2ccccc2)n1
CC50 [2]: 36.5 µM (active)

CCN(CCNC(=O)c1ccc(C#N)cc1)c1cccc(C)c1
AC50 [9]: 1.75 µM (active)

O=C(NCCc1ccccc1)C(=O)NCC1(c2ccccc2)CCCC1
AC50 (Cytochrome P450 3A4): 3.16 µM (inconclusive) | AC50 (Cytochrome P450 2C19): 39.8 µM (inconclusive)

NC(=O)NC(=O)CSc1nnc(-c2ccco2)n1Cc1ccccc1
AC50 (Cytochrome P450 3A4): 25.1 µM (inconclusive) | AC50 (Cytochrome P450 2C9): 12.6 µM (inconclusive)

COc1ccc(Br)cc1/C=N/Nc1ccc(Cl)c(C(=O)O)c1
AC50 [9]: 6.26 µM (active)

COc1nc(Oc2ccc(/C=N/O)cc2)nc(N(C)C)n1
AC50 [9]: 2.99 µM (active) | AC50 (Cytochrome P450 2D6): 22.4 µM (inconclusive) | AC50 (Cytochrome P450 2C19): 17.8 µM (inconclusive)

Cc1[nH]c2ccccc2c1/C=N/O
AC50 [9]: 20.2 µM (active)

Source: ChEMBL document CHEMBL1201862, “PubChem BioAssay data set” (2004)
